The source made the active and inactive calls. No rule for the calls is given here.
assay: Luciferase light induction in v cholerae bh1651, agonist dose response, confirmatory (AID 624254); conditions: V. cholerae BH1651 luxOD47E, luciferase light induction, 6 h; at 50 µM (top of the series)

Row | SMILES | activation (light increase)
1 | CCOC(=O)C1=C(C)NC(SC)=NC1c1ccc(OC)cc1 (centres undefined) | inactive
2 | C=Cn1c(C(=O)O)ccc1-c1ccccc1 | inactive
3 | Cc1ccc(NC(=S)NCCc2c[nH]c3ccccc23)cc1 | inactive
4 | O=C(c1ccccc1)N1CCC(c2nc(-c3ccc(S(=O)(=O)N4CCOCC4)cc3)no2)CC1 | inactive
5 | CCN(CC)c1nc(-c2ccccc2)cc(C(F)(F)F)c1C#N | inactive
6 | COc1cc(NC(=O)Cc2cccs2)ccc1-n1cnnn1 | inactive
7 | O=C(COC(=O)c1cc(Cl)ccc1Cl)NC1CCCC1 | inactive
8 | COCCNc1nc2c(c(=O)n(Cc3ccc(OC)cc3)c(=O)n2C)n1C | inactive
9 | Cn1cnc(S(=O)(=O)Nc2ccc(C(F)(F)F)cc2)c1 | inactive
10 | CCNC(=O)CCSc1nnc(-c2ccco2)o1 | inactive
11 | CCOC(=O)Nc1ccc(S(=O)(=O)Nc2cc(C)nc(C)n2)cc1 | inactive
12 | CCN(CC1COc2ccccc2O1)C(=S)Nc1ccccc1 (centres undefined) | inactive
13 | COc1ccc(OC)c(NC(=O)Nc2cccc(Cn3cccn3)c2)c1 | inactive
14 | Cn1nc(-c2ccc(OCC(=O)NCC3CCCO3)cc2)c2ccccc2c1=O (centres undefined) | inactive
15 | COc1cc(C2N(c3ccccn3)C(=O)C3CCCN32)cc(OC)c1OC (centres undefined) | inactive
16 | Cn1cnc(S(=O)(=O)Nc2ccccc2F)c1 | inactive
17 | Cc1nc(=O)c(-c2ccccc2)c(C)n1CCCCCC(=O)O | inactive
18 | CC(C)Oc1ccc(C(=O)Nc2cc(S(=O)(=O)N3CCOCC3)ccc2N2CCOCC2)cc1 | inactive
19 | COc1ccc(OCC(=O)Nc2ccccc2OC)cc1 | inactive
20 | COc1ccccc1NC(=O)Cc1csc(NC(=S)Nc2ccccc2)n1 | inactive
21 | COC(=O)Nc1ccc(S(=O)(=O)NCCO)cc1 | inactive
22 | COc1ccc(NC(=O)CSc2ccc3c(c2)OCCO3)cc1OC | inactive
23 | C[C@H](NC(=O)c1ccco1)C(=O)Nc1ccc(S(=O)(=O)N2CCCC2)cc1 | inactive

Row | SMILES | activation (light increase)
24 | COc1ccccc1NC(=O)COC(=O)c1oc2ccccc2c1C | inactive
25 | CCCS(=O)(=O)N1CCCC(C(=O)NCCCN(C)c2ccccc2)C1 (centres undefined) | inactive
26 | CC1CCCN(C(=O)Cn2c(-c3nonc3N)nc3ccccc32)C1 (centres undefined) | inactive
27 | O=C(Nc1c(F)c(F)c(F)c(F)c1F)C1CCCCC1 | inactive
28 | C[C@H]1CN([C@@H](C)CO)C(=O)c2cccc(NC(=O)C3CC3)c2O[C@@H]1CN(C)S(=O)(=O)c1cccs1 | inactive
29 | CCc1ccc(C(=O)Nc2ccc(Br)cn2)cc1 | inactive
30 | COc1ccc(S(=O)(=O)N(C)C[C@H]2Oc3c(NC(=O)Nc4ccc5c(c4)OCO5)cccc3C(=O)N([C@H](C)CO)C[C@@H]2C)cc1 | inactive
31 | CCOC(=O)C1CCN(C(=O)Nc2ccc3c(c2)nc(C)n3C)CC1 | inactive
32 | O=C(Nc1cccc(-c2ccc(N3CCOCC3)nn2)c1)c1ccccc1Cl | inactive
33 | CC(C)Oc1ccc(OCCCN2CCCCCC2)cc1 | inactive
34 | O=C(NCc1ccccc1)C1CCCN(S(=O)(=O)c2cccnc2)C1 (centres undefined) | inactive
35 | CS(=O)(=O)NNC(=O)c1sccc1OCc1ncc(C(F)(F)F)cc1Cl | inactive
36 | Cc1ccc(C)c(C(=O)CN2C(=O)NC3(CCCCCC3)C2=O)c1 | inactive
37 | COc1cccc(NC(=O)C2CC(=O)OC23CCOC(C)(C)C3)c1 (centres undefined) | inactive
38 | C[C@@H]1CN([C@@H](C)CO)C(=O)c2cccc(NC(=O)Nc3ccc4c(c3)OCO4)c2O[C@H]1CN(C)S(=O)(=O)c1ccccc1 | inactive
39 | COc1ccccc1NC(=O)COc1ccc2c(c1)OCO2 | inactive
40 | C[C@H]1CN([C@@H](C)CO)C(=O)c2cccc(NC(=O)C3CC3)c2O[C@H]1CN(C)S(=O)(=O)c1cccs1 | inactive
41 | CCCCCn1nc(C(=O)N(CC(C)C)c2c(N)n(CCCC)c(=O)[nH]c2=O)c2ccccc2c1=O | inactive
42 | CCCS(=O)(=O)N1CCCC(C(=O)NCc2ccc(C)cc2)C1 (centres undefined) | inactive
43 | O=C(COc1cccc(Cl)c1)Nc1ccccc1N1CCCCC1 | inactive
44 | N#CCSc1ccccc1NC(=O)COC(=O)CCNC(=O)c1ccc([N+](=O)[O-])cc1 | inactive
45 | CN(C)C(=O)CCSc1nnc(-c2ccco2)o1 | inactive
46 | Cc1cccc(N2CCN(C(=O)C34CC5CC(CC(C5)C3)C4)CC2)c1C | inactive

Row | SMILES | activation (light increase)
47 | NC(=O)c1nsc(C(=O)N(CC(=O)NCc2ccc(F)cc2)Cc2ccco2)c1N | inactive
48 | COc1ccc(-c2cc(CCCC(=O)NCCc3cc(OC)ccc3OC)no2)cc1 | inactive
49 | O=C(NCCN1CCOCC1)c1cccc(NS(=O)(=O)c2ccc(Br)cc2)c1 | inactive
50 | O=C(OC1CCN(c2ncc(C(F)(F)F)cc2Cl)CC1)c1ccc(Cl)cc1 | inactive
51 | COc1ccc(OCC(=O)NC2CCCN(Cc3ccc(Cl)cc3)C2)cc1 (centres undefined) | inactive
52 | Cc1cccc(-c2noc(-c3ccccc3C(=O)NCC3CCCO3)n2)c1 (centres undefined) | inactive
53 | COc1ccc2[nH]c(=O)c(CN(C(=O)c3cccnc3)c3ccc(C)cc3)cc2c1 | inactive
54 | COc1ccc(CCNC(=O)c2ccc(Cl)cc2Cl)cc1 | inactive
55 | Cc1cc2c(ncn2C)c(NS(=O)(=O)c2cc(Cl)ccc2Cl)c1C | inactive
56 | Cc1ccc(C)c(N2CCN(C(c3ccc(N(C)C)cc3)c3nnnn3C(C)(C)C)CC2)c1 (centres undefined) | inactive
57 | O=c1c2c3c(sc2ncn1Cc1ccc(F)cc1)CCC3 | inactive
58 | COc1cc2c(cc1OC)C(c1ccc(C)cc1)NC(=O)C2 (centres undefined) | inactive
59 | CC(OC(=O)c1ccc(-n2cnnn2)cc1)C(=O)N(C)c1ccccc1 (centres undefined) | inactive
60 | CC(C)(C)OC(=O)NCCCC(CCCNC(=O)OC(C)(C)C)C(=O)O | inactive
61 | CC(=O)Nc1ccccc1NS(=O)(=O)c1cn(C)cn1 | inactive
62 | COc1ccccc1NC(=O)Cc1ccc(-c2ccccc2)cc1 | inactive
63 | Cn1cnnc1SCCOc1ccc(Cl)cc1 | inactive
64 | Cc1nn2cnnc2c(C)c1Cc1c(F)cccc1Cl | inactive
65 | O=C(Nc1ccc(S(=O)(=O)Nc2ncccn2)cc1)C1CC(=O)N(c2ccccc2)C1 (centres undefined) | inactive
66 | COc1cc(OC)c(OC)cc1CNC(C)C(O)c1ccccc1 (centres undefined) | inactive
67 | CCOC(=O)C1CCN(C(=O)C2c3ccccc3C(=O)N(C)C2c2ccc(OC)cc2)CC1 (centres undefined) | inactive
68 | CCS(=O)(=O)Nc1ccc(C(=O)OC)cc1 | inactive
69 | CCOC(=O)c1c(NC(=O)COC(=O)Cc2c[nH]c3ccccc23)sc(C(=O)N(C)C)c1C | inactive

From PubChem BioAssay AID624254 (Broad Institute, 2012)
